Values quoted from earlier work in patent EP4512393A1, “COMBINATION OF SODIUM DICHLOROACETATE AND VALPROIC ACID SALTS FOR THE TREATMENT OF VIRAL AND BACTERIAL INFECTIONS AND INFLAMMATORY DISEASES” (Lietuvos sveikatos mokslu universitetas, priority 2023, dated 2025).

Tested on: leukocyte migration into the peritoneal cavity
Details: peritonitis-induced male rat model

## CCCC(CCC)C(=O)O [VPA, 2-n-propyl-pentanoic acid]
  inhibition of leukocyte migration into the peritoneal cavity: 92%
